Data as given in patent US8202893B2, “Cannabinergic lipid ligands” (University of Connecticut, priority 2004, dated 2012).
Where two headings read alike, the source gives them in different places.

Assays:
[1] = target: T1, FAAH (fatty acid amide hydrolase) (Rattus norvegicus, UniProt P97612); test: FAAH screening: inhibition of anandamide metabolism to arachidonic acid; type: biochemical; conditions: 25 nmoles compound with 25 nmoles AEA, 75 μg enzyme, 250 μL, 15 min
T1 construct: Anandamide Amidase Activity in Rat Brain Microsomes; from tissue; host or cells: rat brain microsomes (by the cited procedure)
T1 sequence (P97612 1-579): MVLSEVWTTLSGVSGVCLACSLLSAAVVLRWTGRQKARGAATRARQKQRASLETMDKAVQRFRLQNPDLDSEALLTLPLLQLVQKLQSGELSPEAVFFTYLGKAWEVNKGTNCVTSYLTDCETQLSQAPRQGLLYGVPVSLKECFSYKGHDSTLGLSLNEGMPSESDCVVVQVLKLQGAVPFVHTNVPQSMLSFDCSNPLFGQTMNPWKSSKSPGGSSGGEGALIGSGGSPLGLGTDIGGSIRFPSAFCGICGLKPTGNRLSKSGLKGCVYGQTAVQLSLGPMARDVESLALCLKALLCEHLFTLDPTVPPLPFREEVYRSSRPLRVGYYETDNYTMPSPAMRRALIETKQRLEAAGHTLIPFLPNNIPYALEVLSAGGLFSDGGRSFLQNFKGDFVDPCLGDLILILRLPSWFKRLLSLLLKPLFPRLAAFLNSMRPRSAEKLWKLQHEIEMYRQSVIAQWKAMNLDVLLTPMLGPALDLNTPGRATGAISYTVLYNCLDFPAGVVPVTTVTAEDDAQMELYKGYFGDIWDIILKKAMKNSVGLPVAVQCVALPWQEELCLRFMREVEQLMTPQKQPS
Method: The FAAH (fatty acid amide hydrolase) enzyme preparation was obtained according to the procedure of Lang and Makriyannis et al High Performance Liquid Chromatographic Determination of Anandamide Amidase Activity in Rat Brain Microsomes, Analytical Biochemistry (238): 40-45, 1996.
All compound solutions were made to a concentration of 10 mM in DMSO. Three tests were performed on each compound: hydrolysis, to determine the stability of the compound in assay conditions without the enzyme present; metabolism, to determine the stability of the compound with the enzyme present; and inhibition of anandamide (native substrate) metabolism to arachidonic acid.
Again the reaction mixture was treated in the same manner as described above and the concentrations of AEA and AA were calculated using external standards. Percent inhibition was calculated using the following equation: % Inhib.=(AA15-AA0)i/(AA15-AA0)s where (AA15-AA0)c is the amount of arachidonic acid formed over 15 minutes from AEA with the inhibitor present and (AA15-AA0)s is the amount of arachidonic acid formed over 15 minutes from AEA when the inhibitor is not present. […] The reaction mixtures were treated as described above and the amount of AA formed was calculated. The software package GraphPad Prism was utilized to calculate IC50 and Ki. HPLC Conditions:
Chromatographic separation was achieved using an Ultrasphere ODS Pre-column (4.6×45 mm) from Beckman. Hardware consisted of a Waters Millennium HPLC system with a 20 μL injection loop. The mobile phase consisted of 8.5% o-phosphoric acid:acetonitrile (3:7), run isocratically at a rate of 1 mL/min and detection at 204 nm. The total run time was 8 minutes with AEA eluting at 2.2 minutes and AA at 6.0 minutes.

anandamide transporter = test: [3H]Anandamide transporter competition assay; type: cell-based; conditions: human CCF-STG1 astrocytoma cells, 10 nM [3H]anandamide
Method: Human CCF-STG1 astrocytoma cells (American Type Culture collection) were grown in RPMI1640 culture medium containing 2 mM L-glutamine, 4.5 g/L glucose, 10 mM HEPES, and 1.0 mM sodium pyruvate, 10% FBS, cultures at 37° C. with 5% CO2. For standard competition assays, confluent cells grown in 24-well plates were rinsed and preincubated for 10 min at 37° C. in assay buffer (Hank's Balanced Salt Solution containing 0.1% DMSO, 10 mM HEPES) plus test compounds (at their final concentrations of 0.01-100 μM). After having discarded the preincubation media, the cells were incubated for 4 min in 0.2 ml assay buffer containing 10 nM [^3H] anandamide (137.6 Ci/mmol, New England Nuclear) plus test compounds. Reactions were stopped by removing the incubation media and rinsing the cells three times with 0.5 ml of ice-cold HBSS buffer containing 0.1% fatty acid-free Bovine Serum Albumin (sigma). Radioactive material in Triton X-100 cell extracts was measured by liquid scintillation counting. A minimum of three independent experiments conducted in six replicates was used to define the concentration needed to produce half-maximal inhibition (IC50) for each compound. IC50 values were obtained by nonlinear regression fitting of the data, using the PRIZM software package. Data are expressed as mean±SEM.

CB1 cannabinoid receptor = target: T2, CB1 cannabinoid receptor (Rattus norvegicus, UniProt P20272); test: CB1 receptor binding, [3H]CP-55,940 displacement; conditions: rat forebrain membranes
T2 construct: membranes were prepared from rat forebrain membranes; from tissue; host or cells: rat forebrain
T2 sequence (P20272 whole entry): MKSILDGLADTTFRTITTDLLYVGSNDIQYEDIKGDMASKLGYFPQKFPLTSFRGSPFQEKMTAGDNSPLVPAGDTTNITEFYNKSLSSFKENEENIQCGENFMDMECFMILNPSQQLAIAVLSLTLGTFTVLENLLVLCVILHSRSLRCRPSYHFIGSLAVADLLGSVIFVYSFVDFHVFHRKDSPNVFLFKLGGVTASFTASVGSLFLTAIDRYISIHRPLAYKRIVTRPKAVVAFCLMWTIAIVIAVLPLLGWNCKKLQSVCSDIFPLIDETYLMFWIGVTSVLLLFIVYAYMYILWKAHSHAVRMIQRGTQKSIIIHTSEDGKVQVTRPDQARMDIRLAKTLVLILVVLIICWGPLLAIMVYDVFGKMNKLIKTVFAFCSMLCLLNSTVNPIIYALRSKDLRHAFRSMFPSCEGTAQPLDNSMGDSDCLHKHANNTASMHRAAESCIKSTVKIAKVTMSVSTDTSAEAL
Method: Some inventive analogs were tested for CB2 receptor binding affinity and for CB1 receptor affinity (to determine selectivity). […] The lower the Ki value, the higher the binding affinity. […] For the CB1 receptor binding studies, membranes were prepared from rat forebrain membranes according to the procedure of P. R. Dodd et al, A Rapid Method for Preparing Synaptosomes: Comparison with Alternative Procedures, Brain Res., 107-118 (1981). The binding of the novel analogues to the CB1 cannabinoid receptor was assessed as described in W. A. Devane et al, Determination and Characterization of a Cannabinoid Receptor in a Rat Brain, Mol. Pharmacol., 34, 605-613 (1988) and A. Charalambous et al, 5′-azido Δ^8-THC: A Novel Photoaffinity Label for the Cannabinoid Receptor, J. Med. Chem., 35, 3076-3079 (1992) with the following changes. The above articles are incorporated by reference herein.
Membranes, previously frozen at −80° C., were thawed on ice. To the stirred suspension was added three volumes of TME (25 mM Tris-HCl buffer, 5 mM MgCl2 and 1 mM EDTA) at a pH 7.4. The suspension was incubated at 4° C. for 30 min. At the end of the incubation, the membranes were pelleted and washed three times with TME.
(§1) The treated membranes were subsequently used in the binding assay described below. Approximately 30 μg of membranes were incubated in silanized 96-well microtiter plate with TME containing 0.1% essentially fatty acid-free bovine serum albumin (BSA), 0.8 nM [^3H] CP-55,940, and various concentrations of test materials in a final volume of 200 μL. The assays were incubated for 1 hour at 30° C. and then immediately filtered using Packard Filtermate 196 harvester and Whatman GF/C filterplates and washed with wash buffer (TME) containing 0.5% BSA. Radioactivity was detected using MicroScint 20 scintillation cocktail added directly to the dried filterplates, and the filterplates were counted using a Packard Instruments Top-Count. Nonspecific binding was assessed using 100 nM CP-55,940. Data collected from three independent experiments performed with duplicate determinations was normalized between 100% and 0% specific binding for [^3H] CP-55,940, determined using buffer and 100 nM CP-55,940. The normalized data was analyzed using a 4-parameter nonlinear logistic equation to yield IC50 values.

CB2 receptor = target: T3, CB2 receptor (Mus musculus, UniProt P47936); test: CB2 receptor binding, [3H]CP-55,940 displacement; conditions: mouse spleen membranes
T3 construct: membranes were prepared from frozen mouse spleen; from tissue; host or cells: mouse spleen
T3 sequence (P47936 whole entry): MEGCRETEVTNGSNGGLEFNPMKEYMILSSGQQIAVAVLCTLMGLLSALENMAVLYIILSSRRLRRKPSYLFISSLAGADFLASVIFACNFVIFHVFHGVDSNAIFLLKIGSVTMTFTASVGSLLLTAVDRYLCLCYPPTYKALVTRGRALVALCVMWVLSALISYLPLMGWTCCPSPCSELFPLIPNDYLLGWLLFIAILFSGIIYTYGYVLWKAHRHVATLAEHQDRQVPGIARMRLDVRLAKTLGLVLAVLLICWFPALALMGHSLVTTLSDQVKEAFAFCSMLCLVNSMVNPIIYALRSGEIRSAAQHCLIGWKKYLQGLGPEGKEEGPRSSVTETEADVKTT
Method: as §1
For the CB2 receptor binding studies, membranes were prepared from frozen mouse spleen essentially according to the procedure of P. R. Dodd et al, A Rapid Method for Preparing Synaptosomes: Comparison with Alternative Procedures, Brain Res., 226, 107-118 (1981) which is incorporated by reference herein. Silanized centrifuge tubes were used throughout to minimize receptor loss due to adsorption. The CB2 binding assay was conducted in the same manner as for the CB1 binding assay. The binding affinities (Ki) were also expressed in nanomoles (nM).

[2] = with PMSF (second value of cell), read-out: Ki CB1 (nM) (o/w PMSFQ)
[3] = without PMSF (first value of cell), read-out: Ki CB1 (nM) (o/w PMSFQ)
[4] = with PMSF (second value of cell), read-out: Ki CB1 (nM) (o/w PMSF)
[5] = without PMSF (first value of cell), read-out: Ki CB1 (nM) (o/w PMSF)

Structure (SMILES) | FAAH % Inhibition [1] [%] | IC50 (anandamide transporter; read-out: IC50 AT inhibition) [nM] | Ki (CB1 cannabinoid receptor; [2]) [nM] | Ki (CB1 cannabinoid receptor; [3]) [nM] | Ki (CB2 receptor) [nM] | IC50 (anandamide transporter; read-out: IC50 (AT inhib.)) [nM] | Ki (CB1 cannabinoid receptor; [4]) [nM] | Ki (CB1 cannabinoid receptor; [5]) [nM]
[N-]=[N+]=NCCCCC/C=C\C/C=C\C/C=C\C/C=C\CCCC(=O)NC1CC1 [Compound A5] | 7 | 2900 | 0.9 | 26.7 | 57.6 |  |  | 
[N-]=[N+]=NCCCC/C=C\C/C=C\C/C=C\C/C=C\CCCC(=O)NC1=NCCS1 [Compound A8] | 49 | 2300 | 106 | 1300 | 513 |  |  | 
[N-]=[N+]=NCCCC/C=C\C/C=C\C/C=C\C/C=C\CCCC(=O)NC1CCC1 [Compound A9] | 58 |  | 31.9 | 112 | 72.4 |  |  | 
CC(C)NC(=O)CCC/C=C\C/C=C\C/C=C\C/C=C\CCCCN=C=S [Compound A10] | 84 |  | 7.7 | 95.2 | 52.7 |  |  | 
O=C(CCC/C=C\C/C=C\C/C=C\C/C=C\CCCCN=C=S)NCC1CC1 [Compound A11] | 90 |  | 34.2 | 91.7 | 70.9 |  |  | 
[N-]=[N+]=NCCCCC/C=C\C/C=C\C/C=C\C/C=C\CCCC(=O)Nc1ccc(O)cc1 [Compound A13] | 33 | 700 | 531 | 3830 | 335 |  |  | 
[N-]=[N+]=NCCCCC/C=C\C/C=C\C/C=C\C/C=C\CCCC(=O)NC1=NCCS1 [Compound A14] | 48 | 1200 | 144 | 428 | 243 |  |  | 
COc1cc(CNC(=O)CCC/C=C\C/C=C\C/C=C\C/C=C\CCCCCN=[N+]=[N-])ccc1O [Compound A15] | 38 |  | 13.2 | 48.8 | 74.7 |  |  | 
O=C(CCC/C=C\C/C=C\C/C=C\C/C=C\CCCCCO)NC1CC1 [Compound A17] | 61 | 35300 | 3.9 | 209 | 38.7 |  |  | 
N#CCCCCC/C=C\C/C=C\C/C=C\C/C=C\CCCC(=O)NC1CC1 [Compound A19] | 57 | 23500 | 0.04 | 32.9 | 5.7 |  |  | 
O=C(CCC/C=C\C/C=C\C/C=C\C/C=C\CCCCCCl)NC1CC1 [Compound A20] | 67 | 4100 | 0.17 | 57.9 | 28.3 |  |  | 
CCCCCN(C)C/C=C\C/C=C\C/C=C\C/C=C\CCCC(=O)NC1CC1 [Compound A21] |  |  | 66.3 | 76.5 | 238 |  |  | 
CCCCCN(C)C/C=C\C/C=C\C/C=C\C/C=C\CCCCNC(=O)COC [Compound A22] |  |  |  |  | 224 |  |  | 
CCCCCN(C)C/C=C\C/C=C\C/C=C\C/C=C\CCCCNC(C)=O [Compound A23] |  |  | 627 | 813 | 1760 |  |  | 
CCCCCN(C)C/C=C\C/C=C\C/C=C\C/C=C\CCCCNC(=O)COC [Compound A24] |  |  |  |  | 435 |  |  | 
CCCCCN(C)C/C=C\C/C=C\C/C=C\C/C=C\CCCCNC(C)=O [Compound A25] |  |  | 1030 | 1500 | 3650 |  |  | 
C[C@H](CO)NC(=O)CCC/C=C\C/C=C\C/C=C\C/C=C\C12CC3CC(CC(C3)C1)C2 [Compound A28] |  |  |  |  | 3460 |  |  | 
C[C@H](CO)NC(=O)CCC/C=C\C/C=C\C/C=C\C/C=C\CCC12CC3CC(CC(C3)C1)C2 [Compound A29] |  |  |  |  | 5670 |  |  | 
CCCCC/C=C\C/C=C\C/C=C\C/C=C\CCCCOC(=O)N[C@H](C)CO [Compound B1] | 14.7 |  |  |  | 5070 | 7100 | 1440 | 1330
CCCCC/C=C\C/C=C\C/C=C\C/C=C\CCCCOC(=O)N[C@@H](C)CO [Compound B2] | 14.3 |  |  |  | 2150 | 6400 | 996 | 1100
CCCCC/C=C\C/C=C\C/C=C\C/C=C\CCCCOC(=O)NC1CC1 [Compound B6] |  |  |  |  | 983 | 15500 | 75.1 | 181
CCCCC/C=C\C/C=C\C/C=C\C/C=C\CCCCOC(=O)NC1CCC1 [Compound B7] |  |  |  |  | 5310 | 15500 | 995 | 1410
CCCCC/C=C\C/C=C\C/C=C\C/C=C\CCCCOC(=O)NC1CCCCC1 [Compound B8] |  |  |  |  | 781 | 33000 | 1470 | 3960
CCCCC/C=C\C/C=C\C/C=C\C/C=C\CCCCNC(=O)OC[C@H](C)O [Compound B16] |  |  |  |  | 289 | 3290 | 686 | 1200
